Results as given in PubChem BioAssay (NCI).
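Test compounds were applied to cells in 96-well plates for 48 hours at 5 doses. GI50: concentration for 50% inhibition of growth. Definition used: TGI = concentration required for complete inhibition of growth.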

What was measured:
Assay in all cases: NCI-60 cell line screen, 48 h
[1] = test system: UACC-62 melanoma
[2] = test system: OVCAR-8 ovarian
[3] = test system: EKVX NSCLC
[4] = test system: RPMI-8226 leukemia
[5] = test system: A549 NSCLC
[6] = test system: SN12C renal
[7] = test system: 786-0 renal
[8] = test system: SK-OV-3 ovarian
[9] = test system: UO-31 renal
[10] = test system: SR leukemia

SMILES	GI50 [1] [µM]	TGI [1] [µM]	GI50 [2] [µM]	TGI [2] [µM]	GI50 [3] [µM]	TGI [3] [µM]	GI50 [4] [µM]	TGI [4] [µM]	GI50 [5] [µM]	TGI [5] [µM]	GI50 [6] [µM]	TGI [6] [µM]	GI50 [7] [µM]	TGI [7] [µM]	GI50 [8] [µM]	TGI [8] [µM]	GI50 [9] [µM]	TGI [9] [µM]	GI50 [10] [µM]	TGI [10] [µM]
COc1cc(/C=C/C(=O)c2ccc(F)cc2)ccc1OCCCN1CCN(CC(=O)Nc2ccc(Cl)cc2C(=O)c2ccccc2Cl)CC1	10.4	22.9	11.7	68.1	31.3	> 100	2	5.46	15.9	> 100	12.7	44.3	3.86	15.2	17.4	44.2	2.45	20		
Cc1[nH]c(=O)nc(Nc2ccc(Cl)cc2)c1C(=O)N1CCN(CCO)CC1	94.8	> 100	72	> 100	> 100	> 100	> 100	> 100	> 100	> 100	> 100	> 100	50.7	> 100	29.8	83.1	> 100	> 100		
CCCN(CCC)C(=O)C(=O)c1c(N)[nH]n(-c2ccccc2)c1=O		> 100		> 100		> 100		> 100		> 100		> 100		> 100		> 100		> 100		
COc1cnc2c(c1)C(=O)c1c-2n(CCCNC2=NCCS2)c(=O)c2cc(Cl)ccc12	0.0953	1.94			1.64	3.39	1.07	4.89	1.2	2.51			0.239	1.72	0.316	1.64	0.163	1.74		
CCOC(=O)/C(O)=C(/C(=O)OC)c1ccc(Cl)cc1		> 100		> 100		> 100		> 100		> 100		> 100		> 100		> 100		> 100		
COc1cc([N+](=O)[O-])c(OC)cc1-c1nc2sccn2c1/C=N/N=C(N)N	27.7	70.5	17.3	59.8	25.9	73.6	> 100	> 100	20.8	68.7	9.36	42.1	18	49.6	36.5	94.8	42.5	> 100		
C[C@]12CCC(=O)CC1CCCC2=O (some centres undefined)		> 100		> 100		> 100		> 100		> 100		> 100		> 100		> 100		> 100		
Nc1c(C(=O)c2cccc(C#CCO)c2)cnn1-c1ccc(F)cc1	> 25	> 25	> 25	> 25			> 25	> 25	> 25	> 25	> 25	> 25	> 25	> 25	> 25	> 25	> 25	> 25	> 25	> 25
COC(=O)c1cc2ccccc2c2c3c(ccc12)OCO3	40.1	> 1000	41.1	> 1000			430	> 1000	117	> 1000	205	> 1000	56.1	477	45.8	357	224	> 1000	167	> 1000
Nc1c(C(=O)c2cccc(-c3cccnc3)c2)cnn1-c1ccc(F)cc1F	2.65	> 25	8.13	> 25			9.54	> 25	2.05	> 25	7.53	> 25	18.1	> 25	7.21	> 25	5.56	> 25	0.823	> 6.83
[O-]c1ccccc1/C=N/C(/N=C/c1ccccc1[O-])c1ccccc1O.[O-]c1ccccc1/C=N/C(/N=C/c1ccccc1[O-])c1ccccc1O.[Zr+4]			26.7	> 100	46.1	> 100	24.5	> 100	40	> 100	57.3	> 100	41.6	> 100	23.1	> 100	14.4	98.7		
O=S(=O)(c1cccc2c(I)cccc12)N1CCCNCC1	19.9	37.3	24.4	51.9	19.8	39.7	14.5	38.5	37	> 100	21.2	38.4	16.9	32.8	20.2	37.6	15.6	34		
O=[N+]([O-])c1cc(Cl)cnc1Br		4.9		5.02		15.2		6.79		8.26		7.82		20.2		22.4		3.59		
Cn1cc(-c2csc(-c3cn(CCCN4CCCCC4)c4ccccc34)n2)c2cccnc21	1.87	3.46			16.3	34.5			1.97	3.6	1.79	3.31	1.53	2.93	19.3	42.7	1.51	2.93		
CCc1ccc2c(c1)C(=O)c1c-2n(CCCN=[N+]=[N-])c(=O)c2cc(OC)c(OC)cc12	91.9	> 100	> 100	> 100	> 100	> 100	> 100	> 100	> 100	> 100	> 100	> 100	40.6	> 100	> 100	> 100	> 100	> 100		
Cc1ccc(-c2csc(NC(=O)N3CCN(c4cc5c(cc4F)c(=O)c(C(=O)O)cn5C4CC4)CC3)n2)cc1	0.63	6.29	0.421	7.74	1.49	> 100	0.378	1.9	0.365	> 100	0.366	> 100	0.471	37.5	1.35	6.12	0.36	> 100		
CC(C)(c1ccccc1)c1ccc(Oc2ccc(C#N)c(C#N)c2)cc1	> 100	> 100	> 100	> 100		> 100		> 100		> 100	> 100	> 100	> 100	> 100	> 100	> 100		40.5		
CC1=C(C(=O)N(C)c2ccc(Cl)c(C(=O)OC(C)C)c2)SCCO1		> 100		> 100		> 100		> 100		> 100		> 100		> 100		> 100		> 100		
COc1cccc(-c2cc3c4c(nc5ccccc53)C(=O)c3cccnc3-c4n2)c1	3.88	10.5	1.69	7.08	3.98	14.2	1.2	4.22	1.44	3.82	2.44	6.54	2.03	4.48	8.57	25.7	2.02	8.45		
CNC(=O)OCc1c2ccncc2c(C)c2c1[nH]c1ccc(OC)cc12		0.454		> 100		> 100		0.668		> 100		> 100		0.494		0.866		0.395		
CC(=O)[CH-]C(=O)c1ccccc1.CC(=O)[CH-]C(=O)c1ccccc1.CC(=O)[CH-]C(=O)c1ccccc1.[In+3]	32.9	> 100	24.9	> 100			19.2	64.4	48.8	> 100	21.2	> 100	61.5	> 100	29.2	70.9	29.7	94		
O=C(NC(=Nc1ccccc1)SCCSC(=Nc1ccccc1)NC(=O)c1cccs1)c1cccs1		> 100		> 100		> 100		> 100		> 100		> 100		> 100				92.8		
O=C(N/C(=C\c1ccc(/C=C(\NC(=O)c2ccccc2)c2nc3ccccc3[nH]2)cc1)c1nc2ccccc2[nH]1)c1ccccc1		> 100		> 100		> 100		> 100		> 100		> 100		> 100		> 100		> 100		
Oc1c(Cl)c(Cl)c(O)c2c1CCCC2		27		46		21.4		6.91		72.6		30.2		3.94		27.2		5.28		
